Values joined by “and” are separate entries in the source; they are usually repeats but may differ in a detail not shown here. Identical values can stand only once. Like-named read-outs stand apart in the source and are kept apart here.
Columns and labels:
Type in all cases: physicochemical
[1] = Use of additives to improve separation of Nd/Dy mixture by precipitation with L5 (Example 18); conditions: 11 mM L5
Method: Stock solutions were pipetted into plastic 1×1 cm cuvettes to prepare reaction mixtures with concentrations as follows: • 1. […] 5 mM NdCl3 • 3. 5 mM DyCl3 • 4. 500 mM MOPS pH=7 • 5. the additive of interest, in a variable concentration; if possible, stock solutions were prepared from Na^+ salt forms of the compound; if not, the stock solutions were titrated by NaOH/HCl to pH=7 prior to addition (see Table 12 for additives and concentrations)
These aqueous reaction mixtures, each prepared to a total volume of 2.0 mL with the addition of water as necessary, were mixed by the use of a PTFE-coated stir bar on a magnetic stirrer. The cuvettes were sealed with transparent tape to prevent evaporation overnight. The reaction mixtures were stirred for 18 hours, at which point 500 μL aliquots of each reaction mixture were transferred into plastic 2 mL Eppendorf tubes and centrifuged. The supernatants were carefully pipetted out and transferred to a new set of tubes. The precipitate was dissolved by addition of 500 μL 1M HCl. The absolute concentration of Nd and Dy in each supernatant and precipitate was determined by ICP-OES.

[2] = Removal of additive from remaining solution after precipitation by ultrafiltration (Example 25); conditions: initial [additive] 76 mM
[3] = Separation of industrially relevant binary mixtures by precipitation using L1, L2 and L3 (Example 10); conditions: supernatant
Method: Analogous to Example 7), three sets of reaction mixtures with two metals and either compound L1, L2, or L3 were prepared in a 96-well plate with the following differences: each well was equipped with one PTFE-coated magnetic stir bar, the well plate was sealed with a silicon cover, and the reaction mixtures were stirred on a magnetic stirrer for 2 days at room temperature. Analogous to Example 7), the well plate was then centrifuged and concentrations of the metals were determined using ICP-OES. […] It is evident from the results that certain degrees of enrichment are achieved for very different combinations of metals, and that ligands L1, L2, and L3 have different selectivities for given combinations of metals.

[4] = Separation of Y/Tb mixture by repeated precipitation using L2 (Example 14); conditions: for Precipitate concentration [mM] Tb / Precipitate concentration [mM] Y: dissolved to 200 μL
Method: The experiment was conducted according to Example 11) with 9 identical reaction mixtures containing Y, Tb, and compound L2. The experimental procedure was identical to that of Example 11). The resulting absolute concentrations of both metals in the supernatants and precipitates, as well as calculated values of separation factor Y/Tb according to the formula from Example 11), are summarized in Table 8. The average separation factor value was 3.34.

[5] = Separation of Tb/Lu mixture by precipitation using L4 (Example 16); conditions: for Precipitate concentration [mM] Lu / Precipitate concentration [mM] Tb: dissolved to 150 μL
Method: The experiment was conducted according to Example 24, with 3 identical reaction mixtures containing Tb, Lu, and compound L4. The experimental procedure was identical to that of Example 24 with the difference being that the dissolution of the precipitate in 100 μL, 1 M HCl was achieved within several minutes. The resulting absolute concentrations of both metals in the supernatants and precipitates, as well as calculated values of the separation factor […] according to formula from Example 11), are summarized in Table 10. […] The average separation factor value was 27.

[6] = Separation of binary mixture of rare-earth metals by precipitation using L6 (Example 9); conditions: supernatant; for [mM] M1: with Nd
[7] = group A, 1st precipitation, mean
[8] = group B, 2nd precipitation, mean

## O=C(O)c1ccccc1 [benzoic acid]
[1]; additive 20 mM
  Precipitate concentration [mM] Dy: 3.83 mM
  Precipitate concentration [mM] Nd: 4.94 mM
  Supernatant concentration [mM] Dy: 1.09 mM
  Supernatant concentration [mM] Nd: 0.13 mM
[1]; additive 50 mM
  Precipitate concentration [mM] Dy: 1.81 mM
  Precipitate concentration [mM] Nd: 4.66 mM
  Supernatant concentration [mM] Dy: 2.69 mM
  Supernatant concentration [mM] Nd: 0.10 mM
[1]; additive 100 mM
  Precipitate concentration [mM] Dy: 0.97 mM
  Precipitate concentration [mM] Nd: 4.60 mM
  Supernatant concentration [mM] Dy: 4.03 mM
  Supernatant concentration [mM] Nd: 0.49 mM
[1]; additive 150 mM
  Precipitate concentration [mM] Dy: 0.68 mM
  Precipitate concentration [mM] Nd: 3.96 mM
  Supernatant concentration [mM] Dy: 4.34 mM
  Supernatant concentration [mM] Nd: 1.03 mM
[1]; additive 200 mM
  Precipitate concentration [mM] Dy: 0.53 mM
  Precipitate concentration [mM] Nd: 1.65 mM
  Supernatant concentration [mM] Dy: 4.20 mM
  Supernatant concentration [mM] Nd: 2.89 mM
[1]; additive 250 mM
  Precipitate concentration [mM] Dy: 0 mM
  Precipitate concentration [mM] Nd: 0 mM
  Supernatant concentration [mM] Dy: 5 mM
  Supernatant concentration [mM] Nd: 5 mM
[2]
  % of initial [additive] in filtrate: 43%

## O=C(O)CN1CCNCCN(CC(=O)O)CCN(Cc2ccc(C(=O)O)cc2)CC1 [L3, 2,2′-(4-(4-carboxybenzyl)-1,4,7,10-tetraazacyklododekane-1,7-diyl)Diacetic Acid]
[3]; M1/M2=Eu/Y
  [mM] M1: 0.016 mM
  [mM] M2: 0.076 mM
[3]; M1/M2=La/Ce
  [mM] M1: 0.111 mM
  [mM] M2: 0.036 mM
[3]; M1/M2=Nd/Ce
  [mM] M1: 0.000 mM
  [mM] M2: 0.745 mM
[3]; M1/M2=Nd/Dy
  [mM] M1: 0.000 mM
  [mM] M2: 0.025 mM
[3]; M1/M2=Nd/La
  [mM] M1: 0.000 mM
  [mM] M2: 0.102 mM
[3]; M1/M2=Nd/Pr
  [mM] M1: 0.000 mM
  [mM] M2: 0.016 mM
[3]; M1/M2=Nd/Tb
  [mM] M1: 0.008 mM
  [mM] M2: 0.008 mM
[3]; M1/M2=Pr/Ce
  [mM] M1: 0.060 mM
  [mM] M2: 0.021 mM
[3]; M1/M2=Pr/Dy
  [mM] M1: 0.018 mM
  [mM] M2: 0.034 mM
[3]; M1/M2=Pr/La
  [mM] M1: 0.014 mM
  [mM] M2: 0.098 mM
[3]; M1/M2=Tb/Dy
  [mM] M1: 0.010 mM
  [mM] M2: 0.027 mM
[3]; M1/M2=Tb/Eu
  [mM] M1: 0.018 mM
  [mM] M2: 0.017 mM
[3]; M1/M2=Tb/Pr
  [mM] M1: 0.015 mM
  [mM] M2: 0.018 mM
[3]; M1/M2=Tb/Y
  [mM] M1: 0.018 mM
  [mM] M2: 0.078 mM

## O=C(O)CN1CCNCCN(CC(=O)O)CCN(Cc2cc([N+](=O)[O-])ccc2O)CC1 [L2, 2,2′(4-(2-hydroxy-5-nitrobenzyl)-1,4,7,10-tetraazacyclododecane-1,7-diyl)Diacetic Acid]
[3]; M1/M2=Eu/Y
  [mM] M1: 1.363 mM
  [mM] M2: 2.814 mM
[3]; M1/M2=La/Ce
  [mM] M1: 0.175 mM
  [mM] M2: 0.158 mM
[3]; M1/M2=Nd/Ce
  [mM] M1: 0.425 mM
  [mM] M2: 0.779 mM
[3]; M1/M2=Nd/Dy
  [mM] M1: 1.757 mM
  [mM] M2: 1.970 mM
[3]; M1/M2=Nd/La
  [mM] M1: 0.263 mM
  [mM] M2: 0.128 mM
[3]; M1/M2=Nd/Pr
  [mM] M1: 2.303 mM
  [mM] M2: 2.352 mM
[3]; M1/M2=Nd/Tb
  [mM] M1: 1.532 mM
  [mM] M2: 1.438 mM
[3]; M1/M2=Pr/Ce
  [mM] M1: 0.162 mM
  [mM] M2: 0.171 mM
[3]; M1/M2=Pr/Dy
  [mM] M1: 2.417 mM
  [mM] M2: 2.422 mM
[3]; M1/M2=Pr/La
  [mM] M1: 0.172 mM
  [mM] M2: 0.163 mM
[3]; M1/M2=Tb/Dy
  [mM] M1: 1.054 mM
  [mM] M2: 2.708 mM
[3]; M1/M2=Tb/Eu
  [mM] M1: 1.182 mM
  [mM] M2: 0.956 mM
[3]; M1/M2=Tb/Pr
  [mM] M1: 1.945 mM
  [mM] M2: 2.156 mM
[3]; M1/M2=Tb/Y
  [mM] M1: 1.615 mM
  [mM] M2: 2.812 mM
[4]; group A, 1st precipitation
  Supernatant concentration [mM] Tb: 1.70 mM and 1.85 mM and 1.74 mM
  Supernatant concentration [mM] Y: 4.25 mM and 4.36 mM and 4.12 mM
  Precipitate concentration [mM] Tb: 8.05 mM and 7.82 mM and 7.70 mM
  Precipitate concentration [mM] Y: 5.45 mM and 5.23 mM and 5.52 mM
[4]; [7]
  Precipitate concentration [mM] Tb: 7.86 mM
  Precipitate concentration [mM] Y: 5.40 mM
  Supernatant concentration [mM] Tb: 1.76 mM
  Supernatant concentration [mM] Y: 4.24 mM
[4]; group B, 2nd precipitation
  Supernatant concentration [mM] Tb: 0.79 mM and 1.15 mM and 0.97 mM
  Supernatant concentration [mM] Y: 1.42 mM and 1.52 mM and 1.48 mM
  Precipitate concentration [mM] Tb: 6.95 mM and 5.71 mM and 6.60 mM
  Precipitate concentration [mM] Y: 3.87 mM and 2.86 mM and 3.57 mM
[4]; [8]
  Precipitate concentration [mM] Tb: 6.42 mM
  Precipitate concentration [mM] Y: 3.43 mM
  Supernatant concentration [mM] Y: 1.47 mM

## O=C(O)CN1CCN(CC(=O)O)CCN(Cc2ccc3ccccc3c2)CCN(CC(=O)O)CC1 [L4, 2,2′,2″-(10-(naphthalene-2-ylmethyl)-1,4,7,10-tetraazacyklododekane-1,4,7-triyl)triacetic acid]
[5]
  Supernatant concentration [mM] Lu: 4.26 mM and 4.07 mM and 4.18 mM
  Supernatant concentration [mM] Tb: 1.08 mM and 0.93 mM and 1.19 mM
  Precipitate concentration [mM] Lu: 0.51 mM and 0.61 mM and 0.47 mM
  Precipitate concentration [mM] Tb: 3.74 mM and 3.73 mM and 3.28 mM
[5]; mean
  Precipitate concentration [mM] Lu: 0.53 mM
  Precipitate concentration [mM] Tb: 3.59 mM
  Supernatant concentration [mM] Lu: 4.17 mM
  Supernatant concentration [mM] Tb: 1.07 mM

## CC(=O)O [acetate]
[1]; additive 50 mM
  Precipitate concentration [mM] Dy: 2.43 mM
  Precipitate concentration [mM] Nd: 4.97 mM
  Supernatant concentration [mM] Dy: 3.05 mM
  Supernatant concentration [mM] Nd: 0.33 mM
[1]; additive 100 mM
  Precipitate concentration [mM] Dy: 1.74 mM
  Precipitate concentration [mM] Nd: 4.85 mM
  Supernatant concentration [mM] Dy: 3.74 mM
  Supernatant concentration [mM] Nd: 0.30 mM
[1]; additive 250 mM
  Precipitate concentration [mM] Dy: 1.05 mM
  Precipitate concentration [mM] Nd: 4.04 mM
  Supernatant concentration [mM] Dy: 4.37 mM
  Supernatant concentration [mM] Nd: 1.17 mM
[1]; additive 500 mM
  Precipitate concentration [mM] Dy: 0.49 mM
  Precipitate concentration [mM] Nd: 0.52 mM
  Supernatant concentration [mM] Dy: 4.69 mM
  Supernatant concentration [mM] Nd: 4.62 mM
[2]
  % of initial [additive] in filtrate: 83%

## O=C(O)CN1CCN(CC(=O)O)CCN(Cc2ccc(-c3ccccc3)cc2)CCN(CC(=O)O)CC1 [L6, 2,2′,2″-(10-([1,1′-biphenyl]-4-ylmethyl)-1,4,7,10-tetraazacyclododecane-1,4,7-triyl)triacetic acid]
[6]; M1=Ce
  [mM] M1: 0.596 mM
  [mM] Nd: 0.556 mM
[6]; M1=Dy
  [mM] M1: 0.459 mM
  [mM] Nd: 0.135 mM
[6]; M1=Er
  [mM] M1: 2.027 mM
  [mM] Nd: 0.702 mM
[6]; M1=Eu
  [mM] M1: 0.711 mM
  [mM] Nd: 0.566 mM
[6]; M1=Gd
  [mM] M1: 0.195 mM
  [mM] Nd: 0.166 mM
[6]; M1=Ho
  [mM] M1: 1.943 mM
  [mM] Nd: 0.618 mM
[6]; M1=La
  [mM] M1: 0.620 mM
  [mM] Nd: 0.606 mM
[6]; M1=Lu
  [mM] M1: 3.231 mM
  [mM] Nd: 0.841 mM
[6]; M1=Nd
  [mM] M1: 0.496 mM
  [mM] Nd: 0.496 mM
[6]; M1=Pr
  [mM] M1: 0.524 mM
  [mM] Nd: 0.559 mM
[6]; M1=Sc
  [mM] M1: 2.414 mM
  [mM] Nd: 0.594 mM
[6]; M1=Sm
  [mM] M1: 0.541 mM
  [mM] Nd: 0.512 mM
[6]; M1=Tb
  [mM] M1: 0.428 mM
  [mM] Nd: 0.178 mM
[6]; M1=Tm
  [mM] M1: 2.914 mM
  [mM] Nd: 0.748 mM
[6]; M1=Y
  [mM] M1: 1.592 mM
  [mM] Nd: 1.463 mM
[6]; M1=Yb
  [mM] M1: 2.243 mM
  [mM] Nd: 0.495 mM

— patent US20230356105A1, “TETRAAZADODECANE BASED CHELATING AGENTS FOR SEPARATION OF RARE EARTH ELEMENTS AND METHOD THEREFOR” (Ustav Organicke Chemie a Biochemie AV CR V.V.I., priority 2020, published 2023)
